# Reference: patent publication US20240150377A1, “MODULATORS OF CYSTIC FIBROSIS TRANSMEMBRANE CONDUCTANCE REGULATOR” (VERTEX PHARMACEUTICALS INCORPORATED, priority 2020, published 2024)
# Target: T1, CFTR (Homo sapiens, UniProt P13569, DEL508-508)
# T1 construct: endogenous in cells; host or cells: primary human bronchial epithelial cells from CF subjects (F508del/MF-HBE), differentiated at air-liquid interface
# Assay: HBE2 assay: Ussing chamber assay of CFTR-mediated short-circuit currents
# Type: cell-based
# Details: 3 μM corrector; F508del/MF-HBE cells; with 44 nM potentiator, 18-24 hours, 20% human serum
# Method: Ussing Chamber Assay of CFTR-Mediated Short-Circuit Currents
# After four days the apical media was removed, and the cells were grown at an air liquid interface for >14 days prior to use.
# To isolate the CFTR-mediated short-circuit (ISC) current, F508del/MF-HBE grown on Costar® Snapwell™ cell culture inserts were mounted in an Ussing chamber and the transepithelial ISC was measured under voltage-clamp recording conditions (Vhold=0 mV) at 37° C. […] The CFTR-mediated ISC (μA/cm^2) for each condition was determined from the peak forskolin response to the steady-state current following inhibition.
# Identification of Corrector Compounds
# The activity of the CFTR corrector compounds on the CFTR-mediated ISC was determined in Ussing chamber studies as described above.
# T1 sequence (P13569 with tags, fused parts or gaps DEL508-508): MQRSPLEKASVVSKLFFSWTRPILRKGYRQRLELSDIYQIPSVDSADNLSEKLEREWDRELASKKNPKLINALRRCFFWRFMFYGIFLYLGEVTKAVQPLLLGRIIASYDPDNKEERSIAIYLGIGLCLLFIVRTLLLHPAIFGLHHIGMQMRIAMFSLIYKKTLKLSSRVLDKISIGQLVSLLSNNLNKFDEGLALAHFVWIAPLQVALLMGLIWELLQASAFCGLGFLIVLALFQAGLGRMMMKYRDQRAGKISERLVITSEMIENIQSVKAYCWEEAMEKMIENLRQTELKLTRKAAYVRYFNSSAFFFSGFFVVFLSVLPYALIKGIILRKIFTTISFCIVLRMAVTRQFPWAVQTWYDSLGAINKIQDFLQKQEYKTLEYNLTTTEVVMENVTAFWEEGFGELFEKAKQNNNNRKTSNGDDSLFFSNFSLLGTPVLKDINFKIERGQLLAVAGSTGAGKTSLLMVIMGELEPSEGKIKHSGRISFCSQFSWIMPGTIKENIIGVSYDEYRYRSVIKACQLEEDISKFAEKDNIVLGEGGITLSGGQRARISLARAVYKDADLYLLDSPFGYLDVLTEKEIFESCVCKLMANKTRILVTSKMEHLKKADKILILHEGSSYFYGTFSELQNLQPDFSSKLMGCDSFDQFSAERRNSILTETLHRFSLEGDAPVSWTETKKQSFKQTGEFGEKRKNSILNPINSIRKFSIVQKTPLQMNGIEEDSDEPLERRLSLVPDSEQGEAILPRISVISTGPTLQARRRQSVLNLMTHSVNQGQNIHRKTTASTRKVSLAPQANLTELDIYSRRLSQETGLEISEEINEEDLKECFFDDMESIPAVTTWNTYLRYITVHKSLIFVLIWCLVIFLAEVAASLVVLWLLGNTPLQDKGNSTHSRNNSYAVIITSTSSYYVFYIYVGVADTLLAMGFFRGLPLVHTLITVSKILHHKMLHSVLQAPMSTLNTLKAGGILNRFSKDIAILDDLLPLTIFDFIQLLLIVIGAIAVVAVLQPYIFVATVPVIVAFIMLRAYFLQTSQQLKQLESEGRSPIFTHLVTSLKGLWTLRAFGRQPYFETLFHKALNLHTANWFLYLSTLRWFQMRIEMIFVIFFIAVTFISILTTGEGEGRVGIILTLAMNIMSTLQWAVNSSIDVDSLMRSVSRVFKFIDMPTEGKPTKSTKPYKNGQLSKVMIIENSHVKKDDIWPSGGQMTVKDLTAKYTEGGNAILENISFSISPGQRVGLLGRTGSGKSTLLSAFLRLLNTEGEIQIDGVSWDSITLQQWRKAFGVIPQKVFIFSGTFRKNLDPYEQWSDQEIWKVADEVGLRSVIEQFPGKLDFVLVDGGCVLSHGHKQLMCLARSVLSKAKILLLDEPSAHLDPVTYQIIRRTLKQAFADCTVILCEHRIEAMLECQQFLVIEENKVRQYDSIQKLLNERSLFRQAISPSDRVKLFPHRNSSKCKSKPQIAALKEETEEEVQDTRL
row,Structure (SMILES),HBE2 Activity at 3 μM (%)
1,"Cc1cccc(C)c1-c1cc2nc(n1)NS(=O)(=O)c1cccc(c1)C(=O)N(Cc1cncc(N(C)C3CCC3)n1)[C@]1(CCC(C)(C)C1)CO2 (single isomer, unassigned) [Compound 1326, 12-[[6-[cyclobutyl(methyl)amino]pyrazin-2-yl]methyl]-6-(2,6-dimethylphenyl)-1′,1′-dimethyl-2,2-dioxo-spiro[9-oxa-2λ^6-thia-3,5,12,19-tetrazatricyclo[12.3.1.14,8]nonadeca-1(18),4(19),5,7,14,16-hexaene-11,3′-cyclopentane]-13-one]",+++ (+++ is >60+)
2,"Cc1cccc(C)c1-c1cc2nc(n1)NS(=O)(=O)c1cccc(c1)C(=O)N(Cc1cncc(N3CCCC[C@H]3C)n1)[C@@H](CCC(C)(C)F)CO2 (single isomer, unassigned) [Compound 1327]",+++ (+++ is >60+)
3,"Cc1cccc(C)c1-c1cc2nc(n1)NS(=O)(=O)c1cccc(c1)C(=O)N(Cc1cncc(N3CCCC[C@H]3C)n1)[C@@H](CCC(C)(C)F)CO2 (single isomer, unassigned) [Compound 1328]",++ (++ is 30-60%)
4,"CCC(C)(C)C[C@@H]1COc2cc(-c3c(C)cccc3C)nc(n2)NS(=O)(=O)c2cccc(c2)C(=O)N1Cc1cncc(N(C)C2CCC2)n1 (single isomer, unassigned) [Compound 1330, 12-[[6-[cyclobutyl(methyl)amino]pyrazin-2-yl]methyl]-11-(2,2-dimethylbutyl)-6-(2,6-dimethylphenyl)-2,2-dioxo-9-oxa-2λ^6-thia-3,5,12,19-tetrazatricyclo[12.3.1.14,8]nonadeca-1(18),4,6,8(19),14,16-hexaen-13-one]",+++ (+++ is >60+)
5,"Cc1cccc(C)c1-c1cc2nc(n1)NS(=O)(=O)c1cccc(c1)C(=O)N(Cc1cncc(N3CCCC3C)n1)[C@H](C1CC(C)(C)C1)CO2 (single isomer, unassigned) [Compound 1337]",++ (++ is 30-60%)
6,"Cc1cccc(C)c1-c1cc2nc(n1)NS(=O)(=O)c1cccc(c1)C(=O)N(Cc1cncc(N3CCCC3C)n1)[C@H](C1CC(C)(C)C1)CO2 (single isomer, unassigned) [Compound 1338]",+++ (+++ is >60+)
7,"Cc1cccc(C)c1-c1cc2nc(n1)NS(=O)(=O)c1cccc(c1)C(=O)N(Cc1cncc(N(C)C3CCC3)n1)[C@H](CC1CC(C)(C)C1)CO2 (single isomer, unassigned) [Compound 1339, 12-[[6-[Cyclobutyl(methyl)amino]pyrazin-2-yl]methyl]-11-[(3,3-dimethylcyclobutyl)methyl]-6-(2,6-dimethylphenyl)-2,2-dioxo-9-oxa-2λ^6-thia-3,5,12,19-tetrazatricyclo[12.3.1.14,8]nonadeca-1(18),4(19),5,7,14,16-hexaen-13-one]",+++ (+++ is >60+)
8,"Cc1cccc(C)c1-c1cc2nc(n1)NS(=O)(=O)c1cccc(c1)C(=O)N(Cc1cncc(N(C)C3CCC3)n1)[C@H](CC1CC(C)(C)C1)CO2 (stereo in doubt) [Compound 1340, 12-[[6-[cyclobutyl(methyl)amino]pyrazin-2-yl]methyl]-11-[(3,3-dimethylcyclobutyl)methyl]-6-(2,6-dimethylphenyl)-2,2-dioxo-9-oxa-2λ^6-thia-3,5,12,19-tetrazatricyclo[12.3.1.14,8]nonadeca-1(18),4(19),5,7,14,16-hexaen-13-one]",++ (++ is 30-60%)

# Same assay, conditions: 3 μM; F508del/MF-HBE cells; with 44 nM potentiator; 18-24 hours; 20% human serum
row,Structure (SMILES),HBE2 Activity at 3 μM (%)
1,Cc1cccc(C)c1-c1cc2nc(n1)NS(=O)(=O)c1cccc(c1)C(=O)N(Cc1ccn([C@H](C)C3CCOCC3)n1)[C@H](CC(C)(C)C)CO2 (stereo in doubt) [Compound 1456],+++ (+++ is >60+)
2,Cc1cccc(C)c1-c1cc2nc(n1)NS(=O)(=O)c1cccc(c1)C(=O)N(Cc1ncc(OC(C)C)cn1)[C@H](C(C)C1CC1)CO2 (stereo in doubt) [Compound 1557],+ (+ is <300))
3,Cc1cccc(C)c1-c1cc2nc(n1)NS(=O)(=O)c1cccc(c1)C(=O)N(Cc1ncc(OC(C)C)cn1)[C@H]([C@H](C)C1CC1)CO2 (stereo in doubt) [Compound 1558],+++ (+++ is >60+)
4,Cc1cccc(C)c1-c1cc2nc(n1)NS(=O)(=O)c1cccc(c1)C(=O)N(Cc1ncc(OC(C)C)cn1)[C@H]([C@@H](C)C1CC1)CO2 (stereo in doubt) [Compound 1559],+++ (+++ is >60+)
5,Cc1cccc(C)c1-c1cc2nc(n1)NS(=O)(=O)c1cccc(c1)C(=O)N(Cc1ncc(OC(C)C)cn1)[C@H]([C@@H](C)C(C)C)CO2 (stereo in doubt) [Compound 1570],+ (+ is <300))
6,Cc1cccc(C)c1-c1cc2nc(n1)NS(=O)(=O)c1cccc(c1)C(=O)N(Cc1ncc(OC(C)C)cn1)[C@H]([C@@H](C)C(C)C)CO2 (stereo in doubt) [Compound 1571],+ (+ is <300))
7,Cc1cccc(C)c1-c1cc2nc(n1)NS(=O)(=O)c1cccc(c1)C(=O)N(Cc1ncc(OC(C)C)cn1)[C@H]([C@@H](C)C(C)C)CO2 (stereo in doubt) [Compound 1572],+++ (+++ is >60+)
8,Cc1cccc(C)c1-c1cc2nc(n1)NS(=O)(=O)c1cccc(c1)C(=O)N(Cc1ncc(OC(C)C)cn1)[C@H]([C@@H](C)C(C)C)CO2 (stereo in doubt) [Compound 1573],+++ (+++ is >60+)
9,Cc1cccc(C)c1-c1cc2nc(n1)NS(=O)(=O)c1cccc(c1)C(=O)N(Cc1cccc(N3CCC[C@@]3(C)CO)n1)[C@H](CC(C)(C)C)CO2 (stereo in doubt) [Compound 1585],+++ (+++ is >60+)
10,CO[C@@H]1CC[C@@H]1N(C)c1cncc(CN2C(=O)c3cccc(c3)S(=O)(=O)Nc3nc(cc(-c4c(C)cccc4C)n3)OC[C@H]2CC(C)(C)C)n1 (stereo in doubt) [Compound 1607],+++ (+++ is >60+)
11,Cc1cccc(C)c1-c1cc2nc(n1)NS(=O)(=O)c1cccc(c1)C(=O)N(Cc1cncc(N3CCC4NC(=O)CC43)n1)[C@H](CC(C)(C)C)CO2 (stereo in doubt) [Compound 1621],++ (++ is 30-60%)
12,Cc1cccc(C)c1-c1cc2nc(n1)NS(=O)(=O)c1cccc(c1)C(=O)N(Cc1cncc(N3CCC4NC(=O)CC43)n1)[C@H](CC(C)(C)C)CO2 (stereo in doubt) [Compound 1622],++ (++ is 30-60%)
13,Cc1cccc(C)c1-c1cc2nc(n1)NS(=O)(=O)c1cccc(c1)C(=O)N(Cc1cncc(N3CC4OCC[C@@H]43)n1)[C@H](CC(C)(C)C)CO2 (stereo in doubt) [Compound 1628],+++ (+++ is >60+)
14,Cc1cccc(C)c1-c1cc2nc(n1)NS(=O)(=O)c1cccc(c1)C(=O)N(Cc1cncc(N3CC4OCC[C@@H]43)n1)[C@H](CC(C)(C)C)CO2 (stereo in doubt) [Compound 1629],+++ (+++ is >60+)
15,CO[C@H]1C[C@H](CN(C)c2cncc(CN3C(=O)c4cccc(c4)S(=O)(=O)Nc4nc(cc(-c5c(C)cccc5C)n4)OC[C@H]3CC(C)(C)C)n2)C1 (stereo in doubt) [Compound 1632],+++ (+++ is >60+)
16,CO[C@H](C)CN(C)c1cncc(CN2C(=O)c3cccc(c3)S(=O)(=O)Nc3nc(cc(-c4c(C)cccc4C)n3)OC[C@H]2CC(C)(C)C)n1 (stereo in doubt) [Compound 1634],+++ (+++ is >60+)
17,Cc1cccc(C)c1-c1cc2nc(n1)NS(=O)(=O)c1cccc(c1)C(=O)N(Cc1cncc(N3CC[C@H]3C3CCC3)n1)[C@H](CC(C)(C)C)CO2 (stereo in doubt) [Compound 1637],+++ (+++ is >60+)
18,Cc1cccc(C)c1-c1cc2nc(n1)NS(=O)(=O)c1cccc(c1)C(=O)N(Cc1cncc(N3CC[C@H]4C3CC(=O)N4C)n1)[C@H](CC(C)(C)C)CO2 (stereo in doubt) [Compound 1640],+++ (+++ is >60+)
19,Cc1cccc(C)c1-c1cc2nc(n1)NS(=O)(=O)c1cccc(c1)C(=O)N(Cc1cncc(N3CC[C@@H]4CN(C(=O)OC(C)(C)C)CC43)n1)[C@H](CC(C)(C)C)CO2 (stereo in doubt) [Compound 1649],+++ (+++ is >60+)
20,CC(=O)N1CC2[C@@H](CCN2c2cncc(CN3C(=O)c4cccc(c4)S(=O)(=O)Nc4nc(cc(-c5c(C)cccc5C)n4)OC[C@H]3CC(C)(C)C)n2)C1 (stereo in doubt) [Compound 1663],+++ (+++ is >60+)
21,Cc1cccc(C)c1-c1cc2nc(n1)NS(=O)(=O)c1cccc(c1)C(=O)N(Cc1cncc(N3CC[C@H]4CN(C(=O)OC(C)C)CC43)n1)[C@H](CC(C)(C)C)CO2 (stereo in doubt) [Compound 1664],+++ (+++ is >60+)
22,CC[C@@H](C)N(C)c1cncc(CN2C(=O)c3cccc(c3)S(=O)(=O)Nc3nc(cc(-c4c(C)cccc4C)n3)OC[C@H]2CC(C)(C)C)n1 (stereo in doubt) [Compound 1672],+++ (+++ is >60+)
23,Cc1cccc(C)c1-c1cc2nc(n1)NS(=O)(=O)c1cccc(c1)C(=O)N(Cc1cncc(N3C(=O)CCC3C(C)C)n1)[C@H](CC(C)(C)C)CO2 (stereo in doubt) [Compound 1675],+++ (+++ is >60+)

# Same assay, conditions: F508del/MF-HBE cells; with 44 nM potentiator; 18-24 hours; 20% human serum
row,Structure (SMILES),EC50
1,CO[C@@H]1CC[C@@H]1N(C)c1cncc(CN2C(=O)c3cccc(c3)S(=O)(=O)Nc3nc(cc(-c4c(C)cccc4C)n3)OC[C@H]2CC(C)(C)C)n1 (stereo in doubt) [Compound 1610],< 1000 nM
2,CO[C@H]1C[C@H](CN(C)c2cncc(CN3C(=O)c4cccc(c4)S(=O)(=O)Nc4nc(cc(-c5c(C)cccc5C)n4)OC[C@H]3CC(C)(C)C)n2)C1 (stereo in doubt) [Compound 1632],< 1000 nM
3,CC[C@@H](C)N(C)c1cncc(CN2C(=O)c3cccc(c3)S(=O)(=O)Nc3nc(cc(-c4c(C)cccc4C)n3)OC[C@H]2CC(C)(C)C)n1 (stereo in doubt) [Compound 1672],< 1000 nM

# Same assay, conditions: F508del/MF-HBE cells; with 44 nM potentiator; 18-24 hours; 20% human serum; read-out: HBE2 Max activity (%)
row,Structure (SMILES),Emax
1,CO[C@@H]1CC[C@@H]1N(C)c1cncc(CN2C(=O)c3cccc(c3)S(=O)(=O)Nc3nc(cc(-c4c(C)cccc4C)n3)OC[C@H]2CC(C)(C)C)n1 (stereo in doubt) [Compound 1610],> 60%
2,CO[C@H]1C[C@H](CN(C)c2cncc(CN3C(=O)c4cccc(c4)S(=O)(=O)Nc4nc(cc(-c5c(C)cccc5C)n4)OC[C@H]3CC(C)(C)C)n2)C1 (stereo in doubt) [Compound 1632],> 60%
3,CC[C@@H](C)N(C)c1cncc(CN2C(=O)c3cccc(c3)S(=O)(=O)Nc3nc(cc(-c4c(C)cccc4C)n3)OC[C@H]2CC(C)(C)C)n1 (stereo in doubt) [Compound 1672],> 60%
